Columns and labels:
[1] = target: Phosphorylase b kinase gamma catalytic chain, skeletal muscle/heart isoform (Homo sapiens) (UniProt Q16816); settings: Compound concentration 1000.0 nM
[2] = test system: eIF-2-alpha kinase GCN2 (Homo sapiens), Q9P2K8 [S808G]; settings: Compound concentration 1000.0 nM
[3] = target: Sigma intracellular receptor 2 (Homo sapiens) (UniProt Q5BJF2); settings: Compound concentration 10.0 uM
[4] = target: cAMP-dependent protein kinase catalytic subunit beta (Homo sapiens) (UniProt P22694); settings: Compound concentration 1000.0 nM
[5] = target: Tyrosine-protein kinase JAK2 (Homo sapiens) (UniProt O60674); settings: Compound concentration 1000.0 nM
[6] = target: Sodium-dependent noradrenaline transporter (Homo sapiens) (UniProt P23975); settings: Compound concentration 10.0 uM
[7] = target: Mitogen-activated protein kinase kinase kinase 4 (Homo sapiens) (UniProt Q9Y6R4); settings: Compound concentration 1000.0 nM
[8] = target: 5'-AMP-activated protein kinase catalytic subunit alpha-1 (Homo sapiens) (UniProt Q13131); settings: Compound concentration 1000.0 nM
[9] = target: Serine/threonine-protein kinase OSR1 (Homo sapiens) (UniProt O95747); settings: Compound concentration 1000.0 nM
[10] = target: Histamine H4 receptor (Homo sapiens) (UniProt Q9H3N8); settings: Compound concentration 10.0 uM
[11] = target: T1, Alpha-1A adrenergic receptor (Homo sapiens) (UniProt P35348); settings: Compound concentration 10.0 uM
T1 sequence (whole entry): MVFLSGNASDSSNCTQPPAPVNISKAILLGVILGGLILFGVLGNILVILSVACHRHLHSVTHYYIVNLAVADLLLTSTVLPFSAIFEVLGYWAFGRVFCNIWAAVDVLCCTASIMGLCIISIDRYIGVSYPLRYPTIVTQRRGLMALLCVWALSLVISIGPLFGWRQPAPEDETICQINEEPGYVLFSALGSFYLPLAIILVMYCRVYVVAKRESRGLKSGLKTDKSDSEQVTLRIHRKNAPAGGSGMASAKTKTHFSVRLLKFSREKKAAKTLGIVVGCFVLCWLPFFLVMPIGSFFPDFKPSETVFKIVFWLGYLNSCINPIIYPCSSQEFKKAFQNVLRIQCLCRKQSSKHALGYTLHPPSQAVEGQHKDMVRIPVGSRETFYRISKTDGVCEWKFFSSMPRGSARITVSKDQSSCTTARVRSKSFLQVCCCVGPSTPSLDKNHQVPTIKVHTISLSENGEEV

[12] = target: Glycogen synthase kinase-3 beta (Homo sapiens) (UniProt P49841); settings: Compound concentration 1000.0 nM
[13] = target: Insulin receptor-related protein (Homo sapiens) (UniProt P14616); settings: Compound concentration 1000.0 nM
[14] = target: 1-phosphatidylinositol 3-phosphate 5-kinase (Homo sapiens) (UniProt Q9Y2I7); settings: Compound concentration 1000.0 nM
[15] = test system: ALK tyrosine kinase receptor (Homo sapiens), Q9UM73 [L1196M]; settings: Compound concentration 1000.0 nM
[16] = target: Casein kinase I isoform epsilon (Homo sapiens) (UniProt P49674); settings: Compound concentration 1000.0 nM
[17] = target: Inhibitor of nuclear factor kappa-B kinase subunit alpha (Homo sapiens) (UniProt O15111); settings: Compound concentration 1000.0 nM
[18] = target: Serine/threonine-protein kinase MRCK alpha (Homo sapiens) (UniProt Q5VT25); settings: Compound concentration 1000.0 nM
[19] = test system: Mast/stem cell growth factor receptor Kit (Homo sapiens), P10721 [V559D]; settings: Compound concentration 1000.0 nM
[20] = target: Ephrin type-B receptor 4 (Homo sapiens) (UniProt P54760); settings: Compound concentration 1000.0 nM
[21] = target: Atypical kinase COQ8B, mitochondrial (Homo sapiens) (UniProt Q96D53); settings: Compound concentration 1000.0 nM
[22] = target: Epithelial discoidin domain-containing receptor 1 (Homo sapiens) (UniProt Q08345); settings: Compound concentration 1000.0 nM
[23] = target: Proto-oncogene tyrosine-protein kinase receptor Ret (Homo sapiens) (UniProt P07949); settings: Compound concentration 1000.0 nM
[24] = target: Serine/threonine-protein kinase tousled-like 1 (Homo sapiens) (UniProt Q9UKI8); settings: Compound concentration 1000.0 nM
[25] = target: Ephrin type-A receptor 6 (Homo sapiens) (UniProt Q9UF33); settings: Compound concentration 1000.0 nM
[26] = target: Mitogen-activated protein kinase 7 (Homo sapiens) (UniProt Q13164); settings: Compound concentration 1000.0 nM
[27] = target: Aurora kinase A (Homo sapiens) (UniProt O14965); settings: Compound concentration 1000.0 nM
[28] = test system: Mast/stem cell growth factor receptor Kit (Homo sapiens), P10721 [V559D,V654A]; settings: Compound concentration 1000.0 nM
[29] = target: Mitogen-activated protein kinase 10 (Homo sapiens) (UniProt P53779); settings: Compound concentration 1000.0 nM
[30] = target: Sodium-dependent dopamine transporter (Homo sapiens, UniProt Q01959); assay: GPCRScan assay: inhibition of DAT; set-up: radioligand conc. used [nm] 3.6 – 16.0, parental cells stable HEK
[31] = target: T2, Muscarinic acetylcholine receptor M2 (Homo sapiens) (UniProt P08172); settings: Compound concentration 10.0 uM
T2 sequence (whole entry): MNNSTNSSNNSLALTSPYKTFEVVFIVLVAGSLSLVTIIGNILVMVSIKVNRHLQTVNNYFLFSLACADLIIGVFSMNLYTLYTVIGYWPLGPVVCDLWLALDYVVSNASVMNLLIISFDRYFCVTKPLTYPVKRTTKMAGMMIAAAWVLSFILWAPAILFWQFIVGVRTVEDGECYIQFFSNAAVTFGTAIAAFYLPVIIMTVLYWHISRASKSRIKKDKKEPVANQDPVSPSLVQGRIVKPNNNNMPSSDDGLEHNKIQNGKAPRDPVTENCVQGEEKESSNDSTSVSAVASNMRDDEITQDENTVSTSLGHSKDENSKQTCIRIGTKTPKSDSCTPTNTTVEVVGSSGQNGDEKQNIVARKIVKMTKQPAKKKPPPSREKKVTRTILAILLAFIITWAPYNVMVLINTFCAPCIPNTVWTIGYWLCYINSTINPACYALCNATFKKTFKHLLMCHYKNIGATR

[32] = target: Muscarinic acetylcholine receptor M4 (Homo sapiens) (UniProt P08173); settings: Compound concentration 10.0 uM

Sodium-dependent dopamine transporter, sequence (Q01959 whole entry): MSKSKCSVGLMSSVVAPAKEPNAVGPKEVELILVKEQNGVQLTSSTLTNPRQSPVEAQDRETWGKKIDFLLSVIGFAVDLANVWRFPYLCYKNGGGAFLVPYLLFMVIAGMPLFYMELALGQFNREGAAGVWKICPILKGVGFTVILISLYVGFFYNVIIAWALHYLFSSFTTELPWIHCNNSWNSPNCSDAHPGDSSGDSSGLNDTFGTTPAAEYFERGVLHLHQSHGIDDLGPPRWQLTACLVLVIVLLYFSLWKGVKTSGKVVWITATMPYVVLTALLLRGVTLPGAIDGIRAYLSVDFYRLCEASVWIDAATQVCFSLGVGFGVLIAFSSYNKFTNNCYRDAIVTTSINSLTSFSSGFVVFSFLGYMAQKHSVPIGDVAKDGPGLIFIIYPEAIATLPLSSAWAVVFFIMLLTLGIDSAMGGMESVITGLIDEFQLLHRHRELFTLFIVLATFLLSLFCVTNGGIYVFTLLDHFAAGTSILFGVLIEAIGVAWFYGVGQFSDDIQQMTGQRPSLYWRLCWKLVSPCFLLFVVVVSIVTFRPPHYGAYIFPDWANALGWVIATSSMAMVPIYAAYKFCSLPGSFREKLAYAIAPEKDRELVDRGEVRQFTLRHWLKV
Inhibitor of nuclear factor kappa-B kinase subunit alpha (Homo sapiens), sequence (O15111 whole entry): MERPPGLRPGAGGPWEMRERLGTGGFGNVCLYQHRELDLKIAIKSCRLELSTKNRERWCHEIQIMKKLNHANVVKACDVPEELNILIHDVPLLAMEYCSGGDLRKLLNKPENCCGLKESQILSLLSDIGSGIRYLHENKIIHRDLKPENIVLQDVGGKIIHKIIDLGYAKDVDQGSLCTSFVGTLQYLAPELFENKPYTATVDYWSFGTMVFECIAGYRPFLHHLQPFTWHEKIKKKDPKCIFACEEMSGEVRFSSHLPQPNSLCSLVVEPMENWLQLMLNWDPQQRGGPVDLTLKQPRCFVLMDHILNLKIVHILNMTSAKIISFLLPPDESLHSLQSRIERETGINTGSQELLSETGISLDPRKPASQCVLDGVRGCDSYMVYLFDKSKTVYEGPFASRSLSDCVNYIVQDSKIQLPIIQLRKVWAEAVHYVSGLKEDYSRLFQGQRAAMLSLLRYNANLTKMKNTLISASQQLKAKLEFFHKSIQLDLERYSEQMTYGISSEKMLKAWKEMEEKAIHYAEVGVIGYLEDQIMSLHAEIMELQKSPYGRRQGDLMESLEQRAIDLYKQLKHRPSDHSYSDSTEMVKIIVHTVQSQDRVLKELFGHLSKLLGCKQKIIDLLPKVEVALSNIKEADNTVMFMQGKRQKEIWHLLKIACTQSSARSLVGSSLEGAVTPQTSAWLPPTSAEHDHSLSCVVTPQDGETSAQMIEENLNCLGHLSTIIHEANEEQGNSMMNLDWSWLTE
Serine/threonine-protein kinase MRCK alpha (Homo sapiens), sequence (Q5VT25 whole entry): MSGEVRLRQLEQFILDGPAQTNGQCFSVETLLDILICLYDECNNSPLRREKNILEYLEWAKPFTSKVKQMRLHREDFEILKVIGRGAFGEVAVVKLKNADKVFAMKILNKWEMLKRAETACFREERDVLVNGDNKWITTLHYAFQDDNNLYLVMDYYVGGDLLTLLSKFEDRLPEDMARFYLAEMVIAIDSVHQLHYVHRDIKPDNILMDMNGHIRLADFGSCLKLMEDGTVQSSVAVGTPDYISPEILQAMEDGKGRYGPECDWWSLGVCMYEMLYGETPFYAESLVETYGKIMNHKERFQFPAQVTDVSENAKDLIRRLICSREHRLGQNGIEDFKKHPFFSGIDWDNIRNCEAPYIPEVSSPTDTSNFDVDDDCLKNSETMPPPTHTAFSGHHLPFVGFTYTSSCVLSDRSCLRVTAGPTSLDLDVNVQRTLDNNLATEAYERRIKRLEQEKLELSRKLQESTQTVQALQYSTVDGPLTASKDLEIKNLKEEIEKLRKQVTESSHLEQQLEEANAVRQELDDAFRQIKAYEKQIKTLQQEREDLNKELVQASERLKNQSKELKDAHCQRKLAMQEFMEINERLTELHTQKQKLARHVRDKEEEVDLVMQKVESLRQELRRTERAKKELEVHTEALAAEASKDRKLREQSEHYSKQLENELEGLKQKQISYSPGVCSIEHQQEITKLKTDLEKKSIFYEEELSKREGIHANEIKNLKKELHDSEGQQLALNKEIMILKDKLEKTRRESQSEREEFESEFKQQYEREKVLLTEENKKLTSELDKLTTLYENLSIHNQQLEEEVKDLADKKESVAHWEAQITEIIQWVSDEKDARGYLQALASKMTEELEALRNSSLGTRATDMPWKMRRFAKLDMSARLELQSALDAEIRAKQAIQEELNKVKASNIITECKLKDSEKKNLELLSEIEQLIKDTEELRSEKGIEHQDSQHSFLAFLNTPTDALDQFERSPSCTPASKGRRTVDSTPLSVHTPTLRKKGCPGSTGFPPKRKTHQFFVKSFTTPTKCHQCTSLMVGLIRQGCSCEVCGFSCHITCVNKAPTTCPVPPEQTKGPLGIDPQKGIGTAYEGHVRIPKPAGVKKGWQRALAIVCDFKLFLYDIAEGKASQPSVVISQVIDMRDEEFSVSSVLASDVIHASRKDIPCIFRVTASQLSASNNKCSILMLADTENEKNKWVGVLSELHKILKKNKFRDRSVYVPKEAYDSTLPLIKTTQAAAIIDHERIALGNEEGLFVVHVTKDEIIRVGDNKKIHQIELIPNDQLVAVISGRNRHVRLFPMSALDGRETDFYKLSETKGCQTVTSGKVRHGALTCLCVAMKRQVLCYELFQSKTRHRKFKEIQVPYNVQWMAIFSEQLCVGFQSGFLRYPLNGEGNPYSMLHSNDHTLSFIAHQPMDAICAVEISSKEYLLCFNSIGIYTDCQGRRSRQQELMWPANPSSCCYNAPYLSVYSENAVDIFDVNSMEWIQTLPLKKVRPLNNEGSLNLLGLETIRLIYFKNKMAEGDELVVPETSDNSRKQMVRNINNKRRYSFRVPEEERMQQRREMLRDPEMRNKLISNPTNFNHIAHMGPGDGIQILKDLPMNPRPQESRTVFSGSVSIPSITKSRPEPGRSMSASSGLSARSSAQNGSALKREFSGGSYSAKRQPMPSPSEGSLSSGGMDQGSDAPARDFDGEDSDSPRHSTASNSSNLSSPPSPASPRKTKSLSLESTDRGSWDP
Mitogen-activated protein kinase kinase kinase 4 (Homo sapiens), sequence (Q9Y6R4 whole entry): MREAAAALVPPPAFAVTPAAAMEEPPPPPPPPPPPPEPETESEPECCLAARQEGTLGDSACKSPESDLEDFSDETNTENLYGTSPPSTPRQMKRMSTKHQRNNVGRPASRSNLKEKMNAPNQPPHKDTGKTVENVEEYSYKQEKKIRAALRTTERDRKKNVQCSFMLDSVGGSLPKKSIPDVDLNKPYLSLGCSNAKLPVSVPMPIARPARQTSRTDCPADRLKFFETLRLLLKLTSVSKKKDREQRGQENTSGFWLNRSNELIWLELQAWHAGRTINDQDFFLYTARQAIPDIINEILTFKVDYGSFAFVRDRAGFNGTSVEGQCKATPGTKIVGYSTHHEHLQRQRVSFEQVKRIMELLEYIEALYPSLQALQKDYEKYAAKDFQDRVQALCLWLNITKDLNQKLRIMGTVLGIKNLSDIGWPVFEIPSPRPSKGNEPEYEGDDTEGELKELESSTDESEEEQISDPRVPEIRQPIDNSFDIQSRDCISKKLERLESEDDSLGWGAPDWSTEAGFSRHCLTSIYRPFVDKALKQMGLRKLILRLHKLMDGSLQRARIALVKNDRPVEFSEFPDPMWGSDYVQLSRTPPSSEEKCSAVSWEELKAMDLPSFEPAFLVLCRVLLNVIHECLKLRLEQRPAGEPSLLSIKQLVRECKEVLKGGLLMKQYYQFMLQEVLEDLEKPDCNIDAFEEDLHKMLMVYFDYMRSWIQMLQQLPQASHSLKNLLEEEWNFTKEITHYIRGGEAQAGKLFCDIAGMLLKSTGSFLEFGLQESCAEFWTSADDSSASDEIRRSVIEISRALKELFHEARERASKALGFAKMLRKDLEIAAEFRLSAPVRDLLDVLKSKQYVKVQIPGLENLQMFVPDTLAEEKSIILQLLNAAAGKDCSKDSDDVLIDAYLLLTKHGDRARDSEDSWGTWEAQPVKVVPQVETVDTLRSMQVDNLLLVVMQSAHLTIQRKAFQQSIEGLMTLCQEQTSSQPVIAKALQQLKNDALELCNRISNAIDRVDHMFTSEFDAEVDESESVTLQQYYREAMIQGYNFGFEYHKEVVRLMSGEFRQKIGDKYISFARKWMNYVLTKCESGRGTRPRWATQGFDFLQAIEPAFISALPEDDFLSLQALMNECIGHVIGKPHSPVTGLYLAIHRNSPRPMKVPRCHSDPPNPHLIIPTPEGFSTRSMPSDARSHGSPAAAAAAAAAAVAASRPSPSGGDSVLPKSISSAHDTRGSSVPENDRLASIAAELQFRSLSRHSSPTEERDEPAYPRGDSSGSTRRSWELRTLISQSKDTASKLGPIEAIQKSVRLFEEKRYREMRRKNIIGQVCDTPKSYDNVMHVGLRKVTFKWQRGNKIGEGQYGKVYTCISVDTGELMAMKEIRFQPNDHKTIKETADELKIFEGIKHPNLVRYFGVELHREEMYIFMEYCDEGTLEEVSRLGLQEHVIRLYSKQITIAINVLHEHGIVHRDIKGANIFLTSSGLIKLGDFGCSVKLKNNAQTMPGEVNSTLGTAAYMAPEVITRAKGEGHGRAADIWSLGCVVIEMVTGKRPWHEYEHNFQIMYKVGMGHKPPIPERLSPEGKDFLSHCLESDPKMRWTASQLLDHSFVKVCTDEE
Sigma intracellular receptor 2 (Homo sapiens), sequence (Q5BJF2 whole entry): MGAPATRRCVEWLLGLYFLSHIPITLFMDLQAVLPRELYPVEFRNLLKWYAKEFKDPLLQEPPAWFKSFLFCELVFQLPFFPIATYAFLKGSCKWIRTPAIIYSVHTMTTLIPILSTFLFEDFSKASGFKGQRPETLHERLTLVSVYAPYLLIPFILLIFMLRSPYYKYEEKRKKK

Row | Structure (SMILES) | residual activity [1] | residual activity [2] | inhibition [3] | residual activity [4] | residual activity [5] | inhibition [6] | residual activity [7] | residual activity [8] | residual activity [9] | inhibition [10] | inhibition [11] | residual activity [12] | residual activity [13] | residual activity [14] | residual activity [15] | residual activity [16] | residual activity [17] | residual activity [18] | residual activity [19] | residual activity [20] | other results
1 | CC(=O)N1CCC(c2ccc(C(=O)NC3=NCCN3)cc2C(F)(F)F)CC1 [BI 0054] | 100% | 52% | -0.12% | 100% | 100% | 21.5% | 81% | 100% | 100% | 9.81% | -5.1% | 88% | 81% | 88% | 70% | 100% | 90% | 100% | 100% | 100% | residual activity [21]: 97%; residual activity [22]: 100%; residual activity [23]: 100%; residual activity [24]: 100%; residual activity [25]: 98%; residual activity [26]: 89%; residual activity [27]: 100%; residual activity [28]: 100%; residual activity [29]: 100%; Ki ([30]; read-out: Ki): 825 nM; Ki ([30]; read-out: pKi (converted)): 794 nM; inhibition [31]: -0.799%; inhibition [32]: 19.9%
2 | CC(=O)N1CCC(c2ccc(C(=O)NC(=N)N)cc2C(F)(F)F)CC1 [BI 9627] | 100% | 73% | -6.34% | 100% | 100% | 28.6% | 98% | 97% | 100% | 7.11% | 6.05% | 85% | 100% | 84% | 96% | 100% | 100% | 100% | 100% | 100% | residual activity [21]: 100%; residual activity [22]: 83%; residual activity [23]: 100%; residual activity [24]: 100%; residual activity [25]: 96%; residual activity [26]: 100%; residual activity [27]: 87%; residual activity [28]: 100%; residual activity [29]: 100%; Ki ([30]; read-out: Ki): 1520 nM; Ki ([30]; read-out: pKi (converted)): 1580 nM; inhibition [31]: 23.5%; inhibition [32]: 22.3%

From ChEMBL document CHEMBL4507279, “Data for DCP probe BI-9627” (2021)
